Measurements from paper PMC11984392, “EphA2-targeted alpha-particle theranostics for enhancing PDAC treatment” (Theranostics, 2025).
Like-named read-outs stand apart in the source and are kept apart here. *1 amine or outer side, *2 acyl side, *3 side chain or, on linkers, in order; H or OH if unused. Where a SMILES comes first, the peptide text is derived from it. Bridges are numbered along the chain shown (N, C = ends). [ ]: non-standard residue; d: D form. The star is where a group is joined. TATA = O=C(CC[*:1])N1CN(C(=O)CC[*:2])CN(C(=O)CC[*:3])C1; NOTA = O=C(O)CN1CCN(CC(=O)O)CCN(CC(=O)*)CC1; Hyp = O=C(O)[C@@H]1C[C@@H](O)CN1; hArg = N=C(N)NCCCC[C@H](N)C(=O)O; PEG2 = NCCOCCOCCC(=O)O; Sar = CNCC(=O)O

Key:
AsPC1 cells = experiment: In vitro binding assay with Ga-68 radiotracer; assay type: cell-based, human; details: 1 µCi, 60 min, 4 °C, mean ± SD (n = 3-4)
Procedure: (§1) In vitro binding assays were performed to determine the binding of [^68Ga]AJ201 and [^68Ga]AJ210 to Jurkat and PDAC cell lines. Approximately 1 μCi of radiotracer was incubated with cells in 100 μL culture media for 60 min at 4 °C. After incubation, cells were washed three times with ice cold PBS and counted on an automated gamma counter (1282 Compugamma CS, Pharmacia/LKBNuclear, Inc., Gaithersburg, MD). […] For kinetic study, 8×10^6 Panc1 cells/vial were incubated with approximately 8 μCi/vial of [^68Ga]AJ201 in culture media in triplicates at 37 °C and 4 °C in separate tubes. 1×10^6 cells were aliquoted at predetermined timepoints (5, 15, 30, 60 min). Excess radioactivity was removed by washing three times with PBS. Activity in cell pellets were measured on an automated gamma counter.

BxPC3 cells = experiment: In vitro binding assay with Ga-68 radiotracer; assay type: cell-based, human; details: 1 µCi, 60 min, 4 °C, mean ± SD (n = 3-4)
Procedure: as §1

CFPAC cells = experiment: In vitro binding assay with Ga-68 radiotracer; assay type: cell-based, human; details: 1 µCi, 60 min, 4 °C, mean ± SD (n = 3-4)
Procedure: as §1

Hs766T cells = experiment: In vitro binding assay with Ga-68 radiotracer; assay type: cell-based, human; details: 1 µCi, 60 min, 4 °C, mean ± SD (n = 3-4)
Procedure: as §1

Jurkat cells = experiment: In vitro binding assay with Ga-68 radiotracer; assay type: cell-based, human; details: Jurkat (negative control cells); 1 µCi, 60 min, 4 °C; mean ± SD (n = 3-4)
Procedure: as §1

Panc1 cells = experiment: In vitro binding assay with Ga-68 radiotracer; assay type: cell-based, human
Procedure: as §1

Panc1005 cells = experiment: In vitro binding assay with Ga-68 radiotracer; assay type: cell-based, human; details: 1 µCi, 60 min, 4 °C, mean ± SD (n = 3-4)
Procedure: as §1

Su8686 cells = experiment: In vitro binding assay with Ga-68 radiotracer; assay type: cell-based, human; details: 1 µCi, 60 min, 4 °C, mean ± SD (n = 3-4)
Procedure: as §1

Ex vivo biodistribution = assay type: in vivo, mice; details: mouse, in vivo, total radioactivity, KPC syngeneic tumor, 60 min p.i., mean ± SEM (n = 5)
Procedure: (§2) Mice with 100-200 mm^3 tumor volume were used for ex vivo biodistribution studies. For radiotracer pharmacokinetics and dosimetry studies, mice with Panc1 tumor xenograft received ~80 µCi (2.96 MBq) [^68Ga]AJ201 and were sacrificed at pre-determined time points (5, 30, 60, 90 and 120 min). All other mice were injected with ~50 µCi (1.85 MBq; 0.2 to 0.5 nmol) Ga-68 labeled radiotracer and were sacrificed at 60 min. The selected tissues were collected, weighed, counted, and their %ID/g values calculated for biodistribution analysis. For pharmacokinetics and dosimetry studies, selected tissues included blood, muscle, tumor, thymus, heart, lung, liver, pancreas, stomach, small intestine, large intestine, spleen, adrenals, kidney, bladder, femur, brain and tumor xenografts. For other studies, selected tissues were blood, muscle, tumor, heart, lung, liver, pancreas, small intestine, spleen, kidney.

KPC syngeneic tumor = experiment: Ex vivo biodistribution; assay type: in vivo, mice; details: KPC syngeneic tumor; 60 min p.i.; mean ± SEM (n = 5)
Procedure: as §2

[1] = Human radiation dosimetry estimates (MIRDCalc)
Description: Pharmacokinetic data obtained from biodistribution studies of Panc1 tumor-bearing mice were utilized to predict the time-integrated activity coefficients (TIACs, formerly known as residence times) of [^68Ga]AJ201 in humans, as previously described [28]-[30]. These TIAC estimates were then input into MIRDCalc to determine the absorbed dose coefficients for organs from ^68Ga using the ICRP adult female reference phantom (Table S4).

[2] = absorbed dose coefficient, MIRDCalc, ICRP adult female reference phantom
[3] = absorbed dose coefficient, MIRDCalc, ICRP adult female reference phantom, listed as [68Ga]AJ201
[4] = predicted for humans from Panc1 mouse biodistribution

## CC(C)C[C@@H]1NC(=O)[C@@H]2CSCCC(=O)N3CN(CN(C3)C(=O)CCSC[C@H](NC(=O)[C@H](CC(=O)O)NC(=O)[C@H](CCCCNC(=N)N)NC(=O)[C@H](C)NC(=O)CNC(=O)CN(C)C(=O)CN(C)C(=O)CN(C)C(=O)[C@H](CCCNC(=N)N)NC(=O)CNC(=O)CCOCCOCCNC(=O)CN3CCN(CC(=O)O)CCN(CC(=O)O)CC3)C(=O)N3C[C@H](O)C[C@H]3C(=O)N[C@@H](CC(C)C)C(=O)N[C@@H](C(C)C)C(=O)N[C@@H](CC(N)=O)C(=O)N3CCC[C@H]3C(=O)N[C@@H](CC(C)C)C(=O)N2)C(=O)CCSC[C@@H](C(N)=O)NC(=O)[C@H](CCCCNC(=N)N)NC(=O)[C@H](Cc2c[nH]c3ccccc23)NC(=O)[C@@H](CC(=O)O)NC(=O)[C@@H]2CCCN2C(=O)[C@H](Cc2c[nH]cn2)NC1=O [[^68Ga]AJ201, metal not drawn] ({NOTA-PEG2}-GR[Sar][Sar][Sar]GA[hArg]DC[Hyp]LVNPLCLHP[dD]W[hArg]C-NH2; linker 10-17-24 via TATA)
AsPC1 cells
  Cell binding (percent incubated activity): 9.9 ± 1.2 %IA
BxPC3 cells
  Cell binding (percent incubated activity): 5.9 ± 0.2 %IA
CFPAC cells
  Cell binding (percent incubated activity): 1.7 ± 0.3 %IA
Hs766T cells
  Cell binding (percent incubated activity): 7.2 ± 0.6 %IA
Jurkat cells
  Cell binding (percent incubated activity): 0.8 ± 0.1 %IA
Panc1 cells; 4 °C, time points 5, 15, 30, 60 min
  Time to uptake stabilization in Panc1 cells: around 30 min
Panc1 cells; 37 °C, time points 5, 15, 30, 60 min
  Time to uptake equilibrium in Panc1 cells: ≤ 15 min
Panc1 cells; in the presence of non-radioactive AJ201 (2 µM), P<0.0001
  Reduction of binding to Panc1 cells by blocking: more than 95%
Panc1005 cells
  Cell binding (percent incubated activity): 4.7 ± 0.1 %IA
Su8686 cells
  Cell binding (percent incubated activity): 22.0 ± 1.1 %IA
Ex vivo biodistribution; 50 uCi, read-out: Bladder uptake
  tissue uptake at 1 h: 74.9 ± 15.3 %ID/g
Ex vivo biodistribution; 50 uCi, read-out: Femur uptake
  tissue uptake at 1 h: 0.71 ± 0.22 %ID/g
Ex vivo biodistribution; 50 uCi, read-out: Heart uptake
  tissue uptake at 1 h: 0.3 ± 0.06 %ID/g
Ex vivo biodistribution; 50 uCi, read-out: Kidney uptake
  tissue uptake at 1 h: 50.3 ± 9.75 %ID/g
Ex vivo biodistribution; 50 uCi, read-out: Liver uptake
  tissue uptake at 1 h: 2.46 ± 0.77 %ID/g
Ex vivo biodistribution; 50 uCi, read-out: Lung uptake
  tissue uptake at 1 h: 0.78 ± 0.13 %ID/g
Ex vivo biodistribution; 50 uCi, read-out: Muscle uptake
  tissue uptake at 1 h: 0.28 ± 0.08 %ID/g
Ex vivo biodistribution; 50 uCi, read-out: Pancreas uptake
  tissue uptake at 1 h: 0.22 ± 0.04 %ID/g
Ex vivo biodistribution; 50 uCi, read-out: Small intestine uptake
  tissue uptake at 1 h: 0.62 ± 0.25 %ID/g
Ex vivo biodistribution; 50 uCi, read-out: Stomach uptake
  tissue uptake at 1 h: 0.95 ± 0.26 %ID/g
Ex vivo biodistribution; 50 uCi, read-out: Tumor uptake
  tissue uptake at 1 h: 1.51 ± 0.28 %ID/g
Ex vivo biodistribution; 50 uCi, read-out: Tumor/Muscle ratio
  tissue to tissue ratio at 1 h: 6 ± 0.77
Ex vivo biodistribution; 50 uCi, read-out: Tumor/Pancreas ratio
  tissue to tissue ratio at 1 h: 6.67 ± 2.18
Ex vivo biodistribution; 50 uCi, read-out: Tumor/blood ratio
  tissue to tissue ratio at 1 h: 2.17 ± 0.46
Ex vivo biodistribution; read-out: Blood uptake
  tissue uptake at 1 h: 0.75 ± 0.15 %ID/g
Ex vivo biodistribution; read-out: Large Intestine uptake
  tissue uptake at 1 h: 0.61 ± 0.28 %ID/g
Ex vivo biodistribution; read-out: Spleen uptake
  tissue uptake at 1 h: 0.71 ± 0.3 %ID/g
KPC syngeneic tumor
  Brain uptake: 0.04 ± 0.01 %ID/g
[1]; [2]
  Organ dose, Adrenals: 0.06 rem/mCi
  Organ dose, Bladder: 0.15 rem/mCi
  Organ dose, Brain: 0.003215 rem/mCi
  Organ dose, Femur: 0.01421 rem/mCi
  Organ dose, Heart: 0.03275 rem/mCi
  Organ dose, Kidney: 0.38 rem/mCi
  Organ dose, Large Intestine: 0.01839 rem/mCi
  Organ dose, Liver: 0.02398 rem/mCi
  Organ dose, Lung: 0.04 rem/mCi
  Organ dose, Muscle: 0.00962 rem/mCi
  Organ dose, Pancreas: 0.02708 rem/mCi
  Organ dose, Small intestine: 0.01639 rem/mCi
  Organ dose, Spleen: 0.03644 rem/mCi
  Organ dose, Stomach with contents: 0.0158 rem/mCi
  Organ dose, Thymus: 0.02016 rem/mCi
[1]; [3]
  Organ dose, Adrenals: 0.06253 rem/mCi
  Organ dose, Bladder: 0.1513 rem/mCi
  Organ dose, Kidney: 0.3885 rem/mCi
  Organ dose, Lung: 0.04292 rem/mCi
[1]; at 13 mCi dose, human estimate
  Estimated effective dose equivalent: less than 5 rem
[1]; human estimate
  Dose that can be safely administered for PET imaging: 13 mCi
[1]; [4]
  Residence time (TIAC), Adrenals: 0.0002761 h
  Residence time (TIAC), Bladder: 0.006394 h
  Residence time (TIAC), Blood: 0.05152 h
  Residence time (TIAC), Brain: 0.0008446 h
  Residence time (TIAC), Femur: 0.005607 h
  Residence time (TIAC), Heart: 0.001764 h
  Residence time (TIAC), Kidney: 0.08395 h
  Residence time (TIAC), Large Intestine: 0.001341 h
  Residence time (TIAC), Liver: 0.01723 h
  Residence time (TIAC), Lung: 0.01099 h
  Residence time (TIAC), Muscle: 0.07064 h
  Residence time (TIAC), Pancreas: 0.0006321 h
  Residence time (TIAC), Small intestine: 0.003647 h
  Residence time (TIAC), Spleen: 0.002451 h
  Residence time (TIAC), Stomach with contents: 0.0004823 h
  Residence time (TIAC), Thymus: 0.0002384 h
